#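 Method: 48-hour compound exposure of cells in 96-well plates, five concentrations, linear interpolation of endpoints. Here, GI50 denotes the concentration required for 50% inhibition of growth.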 Active and inactive are the calls of the source. Rule as the data show it: active = GI50 up to about 1.1 µM and inactive = higher.
# Tests used:
# Experiment in all cases: inhibition of tumour cell growth, NCI panel, 48 h
# [1] = system: SW-620
# [2] = system: NCI-H23
# [3] = system: OVCAR-5
# [4] = system: RPMI-8226
# [5] = system: SNB-78
# [6] = system: HCT-15
# [7] = system: RXF 393
# [8] = system: OVCAR-4
# [9] = system: XF498
# [10] = system: KM-20L2
# [11] = system: SN12C
# [12] = system: DMS-114
# [13] = system: DLD-1
# [14] = system: 786-0
# [15] = system: SK-MEL-2
# [16] = system: M19-MEL
# [17] = system: TK-10
# [18] = system: HOP-92
# [19] = system: KM12
# [20] = system: LXFL 529
# [21] = system: IGROV-1
# [22] = system: OVCAR-8
# [23] = system: HT-29
# [24] = system: CCRF-CEM
# [25] = system: DMS-273
# [26] = system: HCT-116
# [27] = system: A498
# [28] = system: HL-60
# [29] = system: Malme-3M
# [30] = system: M14
# [31] = system: U-251
# [32] = system: K562
# [33] = system: HOP-18
# [34] = system: HCC 2998
# [35] = system: UACC-257
# [36] = system: SK-MEL-28
# [37] = system: UO-31
# [38] = system: SK-OV-3
# [39] = system: UACC-62
# [40] = system: MOLT-4
# [41] = system: SNB-19
# [42] = system: LOX IMVI
# [43] = system: NCI-H522
# [44] = system: EKVX
# [45] = system: SF-295
# [46] = system: SF-539
# [47] = system: COLO 205
# [48] = system: SNB-75
# [49] = system: ACHN
# [50] = system: A549
# [51] = system: HOP-62
# [52] = system: CAKI-1
# [53] = system: SF-268
# [54] = system: SK-MEL-5
# [55] = system: NCI-H460
# [56] = system: NCI-H226
# [57] = system: OVCAR-3
# [58] = system: SR
# [59] = system: MCF7
# [60] = system: NCI/ADR-RES
smiles,measurement,setting,value
Cn1c(=O)nc2n(-c3ccc(Cl)c(C(F)(F)F)c3)c3ccccc3nc-2c1=O,GI50,[1],22.9 µM (inactive)
same,GI50,[2],29.6 µM (inactive)
same,GI50,[3],74.3 µM (inactive)
same,GI50,[4],33.2 µM (inactive)
same,GI50,[5],53.6 µM (inactive)
same,GI50,[6],31.4 µM
same,GI50,[7],55.7 µM (inactive)
same,GI50,[8],22.2 µM (inactive)
same,GI50,[9],37.2 µM (inactive)
same,GI50,[10],25.1 µM (inactive)
same,GI50,[11],30.9 µM (inactive)
same,GI50,[12],16.7 µM (inactive)
same,GI50,[13],20.1 µM (inactive)
same,GI50,[14],57 µM (inactive)
same,GI50,[15],34.7 µM (inactive)
same,GI50,[16],13.4 µM (inactive)
same,GI50,[17],> 79.6 µM (inactive)
same,GI50,[18],40.8 µM (inactive)
same,GI50,[19],32.9 µM (inactive)
same,GI50,[20],76.9 µM (inactive)
same,GI50,[21],84.1 µM (inactive)
same,GI50,[22],24.9 µM (inactive)
same,GI50,[23],24.3 µM (inactive)
same,GI50,[24],30.8 µM (inactive)
same,GI50,[25],32.1 µM (inactive)
same,GI50,[26],27.2 µM (inactive)
same,GI50,[27],> 79.3 µM (inactive)
same,GI50,[28],19.3 µM (inactive)
same,GI50,[29],15 µM (inactive)
same,GI50,[30],26.1 µM (inactive)
same,GI50,[31],40.6 µM (inactive)
same,GI50,[32],35.5 µM (inactive)
same,GI50,[33],> 100 µM (inactive)
same,GI50,[34],25.6 µM (inactive)
same,GI50,[35],17.1 µM (inactive)
same,GI50,[36],65 µM (inactive)
same,GI50,[37],> 77.4 µM (inactive)
same,GI50,[38],> 100 µM (inactive)
same,GI50,[39],16.6 µM (inactive)
same,GI50,[40],36.7 µM (inactive)
same,GI50,[41],21.9 µM (inactive)
same,GI50,[42],35 µM (inactive)
same,GI50,[43],25.1 µM (inactive)
same,GI50,[44],35.1 µM (inactive)
same,GI50,[45],44.2 µM (inactive)
same,GI50,[46],29 µM (inactive)
same,GI50,[47],17.7 µM (inactive)
same,GI50,[48],94 µM (inactive)
same,GI50,[49],27.7 µM (inactive)
same,GI50,[50],25.8 µM (inactive)
same,GI50,[51],57.9 µM (inactive)
same,GI50,[52],51.4 µM (inactive)
same,GI50,[53],35.6 µM (inactive)
same,GI50,[54],13.5 µM (inactive)
same,GI50,[55],30.2 µM (inactive)
same,GI50,[56],> 53.7 µM (inactive)
same,GI50,[57],14.7 µM (inactive)
C[C@]12CCC3[C@@H](CCC45OC4C(=O)CC[C@]35C)C1Cc1cnn(-c3ccc(F)cc3)c1N2 (some centres undefined),GI50,[1],31.8 µM (inactive)
same,GI50,[2],22.2 µM (inactive)
same,GI50,[4],19.5 µM (inactive)
same,GI50,[5],25.6 µM (inactive)
same,GI50,[6],17.5 µM
same,GI50,[7],27.9 µM (inactive)
same,GI50,[8],> 10 µM (inactive)
same,GI50,[9],31.8 µM (inactive)
same,GI50,[10],22.6 µM (inactive)
same,GI50,[11],23.3 µM (inactive)
same,GI50,[12],19.4 µM (inactive)
same,GI50,[14],18.6 µM (inactive)
same,GI50,[15],29.9 µM (inactive)
same,GI50,[16],34.3 µM (inactive)
same,GI50,[17],> 100 µM (inactive)
same,GI50,[19],25.1 µM (inactive)
same,GI50,[20],32.8 µM (inactive)
same,GI50,[22],29.8 µM (inactive)
same,GI50,[23],17.3 µM (inactive)
same,GI50,[24],21.3 µM (inactive)
same,GI50,[25],18.8 µM (inactive)
same,GI50,[26],15.3 µM (inactive)
same,GI50,[28],17.6 µM (inactive)
same,GI50,[29],> 100 µM (inactive)
same,GI50,[30],48.6 µM (inactive)
same,GI50,[31],28.4 µM (inactive)
same,GI50,[32],20.9 µM (inactive)
same,GI50,[33],37 µM (inactive)
same,GI50,[35],35.9 µM (inactive)
same,GI50,[36],26.6 µM (inactive)
same,GI50,[37],87.9 µM (inactive)
same,GI50,[38],58.1 µM (inactive)
same,GI50,[39],19.7 µM (inactive)
same,GI50,[40],22.9 µM (inactive)
same,GI50,[41],27.2 µM (inactive)
same,GI50,[42],16.7 µM (inactive)
same,GI50,[43],15 µM (inactive)
same,GI50,[44],49.9 µM (inactive)
same,GI50,[58],27.2 µM (inactive)
same,GI50,[45],39 µM (inactive)
same,GI50,[47],40.5 µM (inactive)
same,GI50,[48],38.6 µM (inactive)
same,GI50,[49],33.6 µM (inactive)
same,GI50,[50],65.5 µM (inactive)
same,GI50,[51],29.6 µM (inactive)
same,GI50,[53],23.6 µM (inactive)
same,GI50,[54],31.5 µM (inactive)
same,GI50,[55],28.6 µM (inactive)
same,GI50,[56],33.4 µM (inactive)
Cc1c(-c2cc3n(n2)C(c2cccs2)C(C#N)=C(c2ccccc2)N3)c(=O)n(-c2ccccc2)n1C (centres undefined),GI50,[1],> 100 µM (inactive)
same,GI50,[2],> 89.5 µM (inactive)
same,GI50,[3],> 100 µM (inactive)
same,GI50,[5],> 100 µM (inactive)
same,GI50,[6],84.1 µM
same,GI50,[7],37.4 µM (inactive)
same,GI50,[8],> 87.9 µM (inactive)
same,GI50,[9],> 79.4 µM (inactive)
same,GI50,[10],24.9 µM (inactive)
same,GI50,[11],> 80.2 µM (inactive)
same,GI50,[12],77.3 µM (inactive)
same,GI50,[13],> 100 µM (inactive)
same,GI50,[15],51.6 µM (inactive)
same,GI50,[16],> 100 µM (inactive)
same,GI50,[59],> 86.5 µM (inactive)
same,GI50,[18],36 µM (inactive)
same,GI50,[19],94.2 µM (inactive)
same,GI50,[21],87.7 µM (inactive)
same,GI50,[22],> 100 µM (inactive)
same,GI50,[23],43.7 µM (inactive)
same,GI50,[24],> 95.1 µM (inactive)
same,GI50,[25],> 91.6 µM (inactive)
same,GI50,[26],> 75.7 µM (inactive)
same,GI50,[27],82.8 µM (inactive)
same,GI50,[28],48.9 µM (inactive)
same,GI50,[29],> 100 µM (inactive)
same,GI50,[60],> 86.3 µM (inactive)
same,GI50,[31],32.7 µM (inactive)
same,GI50,[32],> 100 µM (inactive)
same,GI50,[33],> 100 µM (inactive)
same,GI50,[34],> 100 µM (inactive)
same,GI50,[35],49.2 µM (inactive)
same,GI50,[36],> 100 µM (inactive)
same,GI50,[37],77.4 µM (inactive)
same,GI50,[38],> 100 µM (inactive)
same,GI50,[39],> 100 µM (inactive)
same,GI50,[40],> 72.6 µM (inactive)
same,GI50,[41],> 100 µM (inactive)
same,GI50,[42],38.5 µM (inactive)
same,GI50,[43],63.2 µM (inactive)
same,GI50,[44],> 100 µM (inactive)
same,GI50,[45],> 74.3 µM (inactive)
same,GI50,[46],> 100 µM (inactive)
same,GI50,[47],> 89.3 µM (inactive)
same,GI50,[48],> 55.1 µM (inactive)
same,GI50,[50],> 100 µM (inactive)
same,GI50,[51],> 100 µM (inactive)
same,GI50,[52],11.1 µM (inactive)
same,GI50,[53],> 100 µM (inactive)
same,GI50,[54],28.8 µM (inactive)
same,GI50,[55],76.9 µM (inactive)
same,GI50,[56],> 100 µM (inactive)
same,GI50,[57],> 100 µM (inactive)

# Source: ChEMBL document CHEMBL1201862, “PubChem BioAssay data set” (2004)
